Results as given in US9428753B2, “Use of LXR antagonists for treatment of side effects of elevated glucocorticoid levels” (The Governing Council of the University of Toronto, priority 2013, dated 2016).

Assays:
GR = target: T1, GR (Homo sapiens, UniProt P04150); assay: GAL4-GR / UAS-luc co-transfection reporter assay in HEK293 cells; type: cell-based; design: co-transfecting UAS-reporter and GAL4-LBD of the nuclear receptors LXRα, LXRβ and GR; GAL4 (fusion partner); expressed in transfected cells; host or cells: HEK293 cells; mouse primary hepatocytes; settings: Example 7, 100 nM Dex
T1 sequence (P04150 524-758 limits assumed): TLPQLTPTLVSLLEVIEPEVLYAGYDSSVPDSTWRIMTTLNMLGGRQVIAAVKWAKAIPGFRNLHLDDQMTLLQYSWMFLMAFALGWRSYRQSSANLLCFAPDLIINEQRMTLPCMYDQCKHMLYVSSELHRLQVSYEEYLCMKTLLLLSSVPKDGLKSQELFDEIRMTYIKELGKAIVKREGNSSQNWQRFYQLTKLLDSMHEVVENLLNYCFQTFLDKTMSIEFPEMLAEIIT
Procedure: (§1) RLU=relative luciferase units.
as §1
Further experiments were then carried out to determine the inhibitory potencies for the individual LXR isoforms in HEK 293 cells by co-transfecting UAS-reporter and GAL4-LBD of the nuclear receptors LXRα, LXRβ and GR and then treating with 8 different concentrations of GSK2033. To assess suppression of ligand activated receptors, the transfected cells were co-treated with increasing doses of GSK2033, in addition to T09091317 or Dex (dexamethasone) (at EC80 of LXR isoforms and GR, respectively).
A number of experiments were carried out to determine the relative inhibitory potencies of GSK2033, Amgen 54 and DMHCl for the individual LXR isoforms in HEK 293 cells by co-transfecting UAS-reporter and GAL4-LBD of the nuclear receptors LXRα, LXRβ and GR and then treating with 6 different concentrations of GSK2033, Amgen 54 and DMHCl. To assess suppression of ligand activated receptors, the transfected cells were co-treated with increasing doses of GSK2033, Amgen 54 and DMHCl, in addition to T09091317 or Dex (at EC80 of LXR isoforms and GR, respectively).

Pepck = Pepck gene expression in mouse primary hepatocytes; type: cell-based; settings: for GC-induced Pepck expression: Example 6, GC alone (10 μM; Dex 100 nM)
G6Pc = G6Pc gene expression in mouse primary hepatocytes; settings: LXRα−/− hepatocytes; for G6Pc expression: 100 nM Dex + 10 μM LXR antagonist; for GC-induced G6Pc expression: Example 6, GC alone (10 μM; Dex 100 nM), overnight
Procedure: For the gene expression studies, the isolated hepatocytes were cultured at least 24 hrs prior to treatment with 10 μM Cortisol, 10 μM Triamcinolone acetonide, 10 μM Prednisone, and 100 nM Dex all±10 μM GSK2033 overnight, and then harvested to isolate mRNA.

[1] = system: mouse primary hepatocytes; assay: Glucose production (glucose output) in mouse primary hepatocytes; type: cell-based
Procedure: (§2) T09 treatment was used as a positive control for LXR activity. (D) Glucose output over 24 hrs from LXRα−/− and LXRβ−/− mouse primary hepatocytes following Dex 100 nM±10 μM GSK2033 treatment. (E) Glucose output over 8 hrs from WT hepatocytes following Dex 500 nM±10 μM GSK2033 treatments. Data represent the Avg±SD, N=3. *P<0.05 by One way ANOVA, Student Newman Keuls. Legend: V=vehicle, G=GSK2033 (LXR antagonist); D=dexamethasone (GR agonist); and T09=T0901317 (LXR agonist).
While not wishing to be limited by theory, subsequent to conducting these initial studies it was realized that 24 hour incubation of hepatocytes in gluconeogenic media may be too long. In the literature, for this type of assay, primary heptocytes are usually incubated up to 12 hours. As such, for subsequent studies of the present application, WT cells were treated with 500 nM Dex for 8 hours to be able to measure detectable levels of glucose in the media.

[2] = system: tyrosine aminotransferase (TAT); assay: TAT gene expression in mouse primary hepatocytes; type: cell-based; settings: 100 nM Dex
Procedure: as §2, with “Data represent the Avg±SD, N=3. *P<0.05 by One way ANOVA, Student Newman Keuls.” left out

LXRα−/− mice = assay: In vivo 5 day Dex ± GSK2033 co-treatment study; design: species or system mouse; settings: Dex group
Procedure: LXRα−/− mice were treated with Vehicle (Veh), Dex (2.5 mg/kg) b.i.d. or GSK2033 40 mg/kg (once a day) along with Dex b.i.d. for 5 days. (A) Plasma glucose levels were measured by a colorimetric kit (Wako). (B) Spleen weights were measured at the time of sacrifice, and are presented normalized to body weight. (C) Liver Pepck, FOXO1, Pgc 1α, FGF21, GR and LXRβ gene expression measured by QPCR. Data represent the Avg±SEM, N=2-5. *P<0.05 by One way ANOVA, Student Newman Keuls.
Having observed promising results with GSK2033 co-treatment with Dex in-vitro (GSK2033-mediated suppression of GC-induced gluconeogenic side effects without affecting desirable immune suppression); a study was conducted, in which whole body LXRα−/− mice were treated with vehicle (Veh), 2.5 mg/kg bid (subcutaneous injection) Dex or Dex+40 mg/kg GSK2033 (once a day intraperitoneal injection) for 5 days, and sacrificed at lights on.

IL-1β = IL-1β gene expression in LPS activated mouse primary macrophages (RT-QPCR); type: cell-based; settings: LPS activated macrophages; 250 nM T09, 18 hrs
Procedure: (§3) The expression of genes involved in immune response IL-1β, IL-6 and GILZ was measured following an overnight treatment with Dex 100 nM, 250 nM T0901317 (T09), and/or 10 μM GSK2033 in LPS activated WT, LXR α −/− and LXRβ −/− mouse primary macrophages, by RT-QPCR. Data represent the Avg±SD, N=3. *P<0.05 by One way ANOVA, Student Newman Keuls.
(§4) To assess the ability of GSK2033 to affect GR-mediated inflammatory suppression, a number of gene expression studies were conducted on primary macrophages isolated from WT, LXRα−/− and LXRβ−/− mice. Cells were pre-treated with 10 ng/ml lipopolysaccharide (LPS) for 6 hrs (to induce a potent inflammatory response) followed by treatment of 100 nM Dex, 10 μM GSK2033 and/or 250 nM T09 for 18 hrs.

IL-6 = IL-6 gene expression in LPS activated mouse primary macrophages (RT-QPCR); type: cell-based; settings: LPS activated macrophages; 250 nM T09, 18 hrs
Procedure: as §3, §4

Srebp-1c = Srebp-1c gene expression in mouse primary hepatocytes; type: cell-based; settings: 250 nM T09
[3] = Example 8, LXRα−/− hepatocytes, 100 nM Dex + 10 μM LXR antagonist

## CS(=O)(=O)c1ccc(C#CC(O)(c2ccc(N(CC3CC3)S(=O)(=O)c3ccccc3)cc2)C(F)(F)F)cc1 (stereo not drawn) [Amgen 54]
GR
  Dex induced GR activity: unaffected
Pepck; [3]
  Pepck expression: 8.4 fold
G6Pc; Example 8
  G6Pc expression: 6.5 fold

## C[C@]12CCC(=O)C=C1CC[C@@H]1[C@@H]2[C@@H](O)C[C@@]2(C)[C@H]1CC[C@]2(O)C(=O)CO [Cortisol, cortisol (hydrocortisone)]
Pepck; LXRα−/− hepatocytes, overnight
  GC-induced Pepck expression: 23.9 fold
G6Pc
  GC-induced G6Pc expression: 10.3 fold

## CC(CCC(=O)N(C)C)[C@H]1CC[C@H]2C3CC=C4CC(Cl)CC[C@]4(C)C3CC[C@]12C (stereo partly drawn) [DMHCl]
GR
  Dex induced GR activity: unaffected
Pepck; [3]
  Pepck expression: 1.4 fold
G6Pc; Example 8
  G6Pc expression: 3.9 fold

## C[C@@H]1C[C@H]2[C@@H]3CCC4=CC(=O)C=C[C@]4(C)[C@@]3(F)[C@@H](O)C[C@]2(C)[C@@]1(O)C(=O)CO [Dex, dexamethasone]
Pepck; Example 3, LXRα−/− hepatocytes, 100 nM Dex alone
  Pepck expression: 15.7 fold
Pepck; Example 3, WT hepatocytes, 100 nM Dex alone, overnight
  Pepck expression: 8.5 fold
Pepck; LXRα−/− hepatocytes, overnight
  GC-induced Pepck expression: 23.2 fold
Pepck; Example 8, LXRα−/− hepatocytes, 100 nM Dex alone
  Dex-induced Pepck expression: 15.8 fold
[1]; LXRα−/− hepatocytes, 100 nM Dex alone, 24 hours
  glucose secretion (glucose output): 2.2 fold
[1]; WT hepatocytes, 500 nM Dex alone, 8 hours
  glucose secretion (glucose output): 3 fold
[2]; LXRα−/− hepatocytes
  TAT expression (induction): 12.7 fold
[2]; LXRβ−/− hepatocytes
  TAT expression (induction): 9.7 fold
[2]; WT hepatocytes
  TAT expression (induction): 20.8 fold
LXRα−/− mice
  liver FOXO 1 gene expression (induction): 3.3 fold
  liver Pepck gene expression (induction): 3.7 fold
G6Pc
  GC-induced G6Pc expression: 11.2 fold
G6Pc; Example 8, 100 nM Dex alone
  Dex-mediated G6Pc expression: 10.3 fold

## C[C@]12C=CC(=O)C=C1CC[C@@H]1[C@@H]2C(=O)C[C@@]2(C)[C@H]1CC[C@]2(O)C(=O)CO [Prednisone, prednisone]
Pepck; LXRα−/− hepatocytes, overnight
  GC-induced Pepck expression: 9.3 fold
G6Pc
  GC-induced G6Pc expression: 22.3 fold

## O=S(=O)(c1ccccc1)N(CC(F)(F)F)c1ccc(C(O)(C(F)(F)F)C(F)(F)F)cc1 [T09]
IL-1β
  IL-1β expression, LXR agonist alone: suppression
IL-6
  IL-6 expression, LXR agonist alone: suppression
Srebp-1c; LXRα−/− hepatocytes
  Srebp-1c expression (induction): 3.7 fold
Srebp-1c; LXRβ−/− hepatocytes
  Srebp-1c expression (induction): 42.0 fold
Srebp-1c; WT hepatocytes
  Srebp-1c expression (induction): 37.7 fold

## CC1(C)O[C@@H]2C[C@H]3[C@@H]4CCC5=CC(=O)C=C[C@]5(C)[C@@]4(F)[C@@H](O)C[C@]3(C)[C@]2(C(=O)CO)O1 [Triamcinolone acetonide, triamcinolone acetonide]
Pepck; LXRα−/− hepatocytes, overnight
  GC-induced Pepck expression: 6.1 fold
G6Pc
  GC-induced G6Pc expression: 27.3 fold
